“And” between values parts separate entries of the source, which are not always exact repeats. Equal values may be shown once. “Also recorded” adds a separate entry of the source.
Tests used:
aPTT = aPTT of blood exposed to antithrombotic and antiplatelet agents; format: biochemical, human
Description: Blood was harvested between 0900 and 1200 hours. Phlebotomies were performed with 19 gauge butterfly needles and a two syringe technique with which the first three ml of blood were discarded. […] The concentrations of heparin, enoxaparin and abciximab were chosen to simulate those attained in clinical practice and equivalent anti-IIa and anti-Xa concentrations of hirudin and rTAP -were chosen. Final volumes were 1 part anticoagulant to 9 parts blood.

[1] = test system: tissue factor initiated clotting in whole blood; assay: tissue factor dependent clotting assay in minimally altered whole blood, contact pathway suppressed with CTI, Hemochron ACT instrument; format: cell-based, human
From the text: This assay uses an anti-coagulation sufficient amount of CTI to inhibit clotting in minimally altered whole blood. The assay is more particularly referred to herein as “tissue factor dependent clotting assay” or similar phrase. The assay is particularly useful for monitoring coagulation in whole or minimally altered whole blood. As an example, the assay is especially useful as a novel bedside tool that permits improved therapuetic assessment including standard antithrombotic and antiplatelet therapies. The assay should also facilitate improved dose selection, titration and monitoring of multicomponent antithrombotic, antiplatelet, and fibrinolytic treatment.
Blood samples were obtained from healthy individuals and the contact pathway of coagulation was inhibited with corn trypsin inhibitor(a specific factor XIIa inhibitor without effect on other coagulation factors.). Clotting was initiated with relipidated tissue factor and detected with a Hemochron ACT instrument. Results were reproducible with samples from 20 healthy volunteers (mean time to clot=118±9 seconds). In other studies, blood was exposed to pharmacologic concentrations of antithrombotic and antiplatelet agents in vitro. […] Additive effects of antiplatelet agents were readily detectable in contrast to the case with aPTT assays. Thus, addition of 3 μg/ml abciximab to 0.1 anti-IIa/Xa U/ml of heparin and to 0.4 anti-Xa U/ml of enoxaparin prolonged the times to clot by 62 and 52 seconds, respectively (p<0.05 for each).
Blood was harvested between 0900 and 1200 hours. Phlebotomies were performed with 19 gauge butterfly needles and a two syringe technique with which the first three ml of blood were discarded. Blood samples were drawn into syringes containing corn trypsin inhibitor (CTI, Enzyme Research Laboratories, South Bend, Ind.) alone in concentrations ranging from 32 to 300 μg/ml or in combination with selected pharmacologic concentrations of heparin (0.1, 0.25 and 0.4 anti-IIa/Xa U/ml), enoxaparin (0.4 and 0.8 anti-Xa U/ml, Rhone-Poulenc Rorer), hirudin ([…], Sigma), recombinant tick anticoagulant peptide (rTAP, 0.4 anti-Xa U/ml, kindly provided by Corvass International), or abciximab (3 μg/ml, Eli Lilly). The concentrations of heparin, enoxaparin and abciximab were chosen to simulate those attained in clinical practice and equivalent anti-IIa and anti-Xa concentrations of hirudin and rTAP -were chosen. Final volumes were 1 part anticoagulant to 9 parts blood.
A 400 μl aliguot of blood was added to a K-resin ACT tube kindly provided by International Technidyne without the glass beads traditionally used to activate the contact pathway. Lipidated tissue factor (1-60 pM, American Diagnostica, Greenwich, Conn.) was added to K-resin tubes before addition of blood.
The K-resin tubes containing tissue factor and blood were placed promptly in a Hemochron ACT instrument. The time to clot was detected by the displacement of a dependent magnet within the rotating tube when fibrin strands formed. The blood was maintained at 37° C. throughout the assay procedure.

[2] = abciximab 3 μg/ml added to 0.1 anti-IIa/Xa U/ml heparin
[3] = abciximab 3 μg/ml added to 0.4 anti-Xa U/ml enoxaparin

hirudin
prolongation of the aPTT (aPTT; hirudin 0.4 anti-IIa U/ml): 3 s
effect on the aPTT (aPTT; hirudin 0.4 anti-IIa U/ml (versus 0.8 U/ml)): significantly prolonged only with the higher concentration; also recorded: detected only with 0.8 U/ml; also recorded: not affected
effect on the aPTT (aPTT; hirudin 0.4 anti-IIa U/ml (versus 0.8 U/ml), listed as Hirudin): without prolonging the aPTT
prolongation of the aPTT (aPTT; hirudin 0.8 U/ml): 16 s
effect on the time to clot ([1]; hirudin 0.4 and 0.8 anti-IIa U/ml, 200 μg/ml CTI, 20 pM tissue factor): prolonged the time to clot at each concentration tested
prolongation of the time to clot ([1]; hirudin 0.4 anti-IIa U/ml, 200 μg/ml CTI, tissue factor initiated): 21 s
prolongation of the time to clot ([1]; hirudin 0.8 U/ml, 200 μg/ml CTI, 20 pM tissue factor): 37 s

enoxaparin
effect on the aPTT (aPTT; enoxaparin 0.4 and 0.8 anti-Xa U/ml): increased with increasing concentrations
effect on the aPTT (aPTT; enoxaparin 0.4 and 0.8 anti-Xa U/ml, listed as Enoxaparin): prolonged
increase of the aPTT (aPTT; enoxaparin 0.4 anti-Xa U/ml): 15 s
effect on the time to clot ([1]; enoxaparin 0.4 and 0.8 anti-Xa U/ml, 200 μg/ml CTI, 20 pM tissue factor): increased with increasing concentrations
effect on the time to clot ([1]; enoxaparin 0.4 and 0.8 anti-Xa U/ml, 200 μg/ml CTI, 20 pM tissue factor, listed as Enoxaparin): prolonged
increase of the time to clot ([1]; enoxaparin 0.4 anti-Xa U/ml): 46 s

heparin
increase of the aPTT (aPTT; heparin 0.1 anti-IIa/Xa U/ml): 34 s
effect on the aPTT (aPTT; heparin 0.25 and 0.4 anti-IIa/Xa U/ml): prolonged with increasing concentrations
effect on the aPTT (aPTT; heparin 0.25 and 0.4 anti-IIa/Xa U/ml, listed as Heparin): prolonged
increase of the time to clot ([1]; heparin 0.1 anti-IIa/Xa U/ml): 41 s
effect on the time to clot ([1]; heparin 0.25 and 0.4 anti-IIa/Xa U/ml, 200 μg/ml CTI, 20 pM tissue factor): prolonged with increasing concentrations
effect on the time to clot ([1]; heparin 0.25 and 0.4 anti-IIa/Xa U/ml, 200 μg/ml CTI, 20 pM tissue factor, listed as Heparin): prolonged

rTAP: recombinant tick anticoagulant peptide, a specific inhibitor of factor Xa (YNRLCIKPRDWIDECDSNEGGERAYFRNGKGGCDSFWICPEDHTGADYYSSYRDCFNACI; UniProt P17726 1-60, looked up)
effect on the aPTT (aPTT; rTAP 0.4 anti-Xa U/ml): no effect; also recorded: not affected
effect on the aPTT (aPTT; rTAP 0.4 anti-Xa U/ml, listed as tick anticoagulant peptide): without prolonging the aPTT
prolongation of the aPTT (aPTT; tick anticoagulant peptide 0.4 anti-Xa U/ml): 3 s
effect on the time to clot ([1]; rTAP 0.4 anti-Xa U/ml, 200 μg/ml CTI, 20 pM tissue factor): prolonged the time to clot
prolongation of the time to clot ([1]; rTAP 0.4 anti-Xa U/ml, 200 μg/ml CTI, tissue factor initiated): 229 s

B1: abciximab (antibody, chains of the INN, looked up, V domains shown)
VH: EVQLQQSGTVLARPGASVKMSCEASGYTFTNYWMHWVKQRPGQGLEWIGAIYPGNSDTSYIQKFKGKAKLTAVTSTTSVYMELSSLTNEDSAVYYCTLYDGYYVFAYWGQGTLVTVSA
VL: EIVLTQSPVTLSVTPGDSVSLSCRASRDISNNLHWFQQTSHESPRLLIKYASQSMSGIPSRFSGSGSGTDFTLSINSVETEDFGMYFCQQTNSWPYTFGGGTKLEIK
modifications: Fab
notes: commercially available monoclonal antibody against platelet glycoprotein gpIIb-IIIa
effect on the aPTT of adding abciximab to heparin (aPTT; [2]): not affected; also recorded: did not prolong further the aPTT; also recorded: did not affect the aPTT
effect on the aPTT of adding abciximab to enoxaparin (aPTT; [3]): not affected; also recorded: did not prolong further the aPTT
effect of the combination on the time to clot ([1]; 0.1 anti-IIa U/ml heparin with 3 μg/ml abciximab, 200 μg/ml CTI, 20 pM tissue factor): prolonged the time to clot compared with heparin alone
effect of the combination on the time to clot ([1]; 0.4 anti-Xa U/ml enoxaparin with 3 μg/ml abciximab, 200 μg/ml CTI, 20 pM tissue factor): prolonged the time to clot compared with enoxaparin alone
further prolongation of the time to clot compared with heparin alone [1, 2]: 62 s and 61 s
further prolongation of the time to clot compared with enoxaparin alone [1, 3]: 52 s
prolongation of the time to clot by the combination ([1]; abciximab 3 μg/ml and heparin in combination): 102 s

B2: lipidated tissue factor: lipidated tissue factor (American Diagnostica), initiator of clotting (protein, UniProt P13726 33-295, looked up)
Tissue factor: SGTTNTVAAYNLTWKSTNFKTILEWEPKPVNQVYTVQISTKSGDWKSKCFYTTDTECDLTDEIVKDVKQTYLARVFSYPAGNVESTGSAGEPLYENSPEFTPYLETNLGQPTIQSFEQVGTKVNVTVEDERTLVRRNNTFLSLRDVFGKDLIYTLYYWKSSSSGKKTAKTNTNEFLIDVDKGENYCFSVQAVIPSRTVNRKSTDSPVECMGQEKGEFREIFYIIGAVVFVVIILVIILAISLHKCRKAGVGQSWKENSPLNVS
modifications: lipidated
notes: lipidated tissue factor (American Diagnostica), initiator of clotting
effect on the time to clot ([1]; lipidated tissue factor 1.0 to 60 pM, 12 subjects): concentration dependent decrease in the time to clot

Reference: patent US6566140B2, “Inhibition of coagulation in blood and blood products” (University of Vermont and State Agriculture College, priority 1998, dated 2003)
